Test results published in US20040023972A1, “Use of substituted imidazo[1,2-a]-pyridin-, -pyrimidin-and-pyrazin-3-yl-amine derivatives in the preparation of medicaments for inhibiting NOS” (Gruenenthal GmbH, priority 2000, published 2004).

These molecules were tested against T1, NO synthase (Rattus norvegicus, UniProt P29476) (assay: HTS-NOS assay (NOS assay): conversion of radioactive arginine, cation-exchanger filter plate). Details: 10 μM.
T1 construct: the supernatant was then removed by decantation and frozen in portions at −80° C; from tissue; host or cells: rat cerebellum, 20,000 g supernatant of homogenate
Format: biochemical
Method: This assay enables the percentage inhibition of NO synthase by an active ingredient to be determined by measuring the NOS activity under the action of the active ingredient. NO synthase is mixed together with radioactively labelled arginine and the active ingredient under suitable conditions. After terminating the NO-forming reaction at a given time, the amount of unconverted arginine is determined directly or indirectly. A comparison of that amount with the amount of arginine that remains in a mixture of NOS and arginine without the addition of active ingredient and under otherwise identical conditions gives the % inhibition of NO synthase by the tested active ingredient. This assay can be carried out as follows:
(a) incubation of NO synthase with labelled arginine as substrate in a reaction vessel,
(b) separation of the labelled arginine from the labelled citrulline optionally formed as a product of the enzymatic reaction, at a time at which the citrulline concentration is increasing,
(c) measurement of the amount of arginine remaining in each case.
Separation is carried out over a filter plate membrane.
This NOS assay is suitable especially for “high throughput screening” (HTS) on microtitre plates (MTP).
In this HTS-NOS assay, radioactive arginine is used as substrate. The assay volume can be chosen in the range from 25 μl to 250 μl, according to the type of microtitre plate (MTP). Depending on the source of the enzyme used, co-factors and co-enzymes are added. Incubation of the batches on this microtitre plate (assay MTP) according to step (a) is carried out at room temperature and is for 5 to 60 minutes according to the enzyme activity used (units). At the end of the incubation (step (a)), the plate is placed into a cell harvester which is equipped with a MTP having a cation-exchanger membrane as the filter base (filter MTP). All batches of the assay MTP are transferred to the filter MTP and filtered off with suction over a cation-exchanger filter plate, a paper filter charged with phosphate groups. The filter MTP is then washed with buffer or water. By means of this procedure, the arginine substrate that remains is bound to the cation exchanger, while the enzymatically formed radioactive citrulline is washed out quantitatively. After drying the filter MTP and adding scintillation liquid, the bound arginine can be counted using a scintillation counter. An uninhibited NOS reaction is reflected in low radioactivity. An inhibited enzyme reaction means that the radioactive arginine has not been converted. This means that a high level of radioactivity is found on the filter.
Rat cerebella were used as the starting tissue. The animals were anaesthetized and sacrificed, the brain tissue, the cerebellum, was removed by dissection, 1 ml of enzyme preparation buffer was added per rat cerebellum (4° C.), and disintegration was carried out using a Polytron homogeniser for 1 minute at 6000 rpm, followed by centrifugation for 15 minutes at 4° C. and 20,000 g; the supernatant was then removed by decantation and frozen in portions at −80° C. (the precipitate was discarded).
96-well MTP having a well capacity of <250 μl were used.
Pipetting sequence: see Table 1.
When the pipetting operation was complete, a cover was placed on the MTP (assay MTP), and incubation was at 25° C. (room temperature (RT)) for from 5 to 60 minutes, according to the amount and activity of the enzyme used.
The contents of the assay MTP were then transferred with the aid of a 96-well cell harvester to a 96-well cation exchanger MTP (filter MTP) and filtered off with suction. This was followed by washing once with […] of H2O (from a bath).
The plate was then dried for 1 hour at 60° C. in a drying cabinet. The underside of the filter MTP was then accurately sealed from beneath with a “back seal”. 35 μl of scintillation fluid per well were then added by means of a pipette. The upper side of the plate was also sealed with a “top seal”. […]

Row | Compound | HTS-NOS assay: % inhibition (10 μM)
1 | C#[N+]CCCCCCNc1c(C2CCCCC2)nc2cc(C)cc(C)n12 [Example 88, [6-(2-Cyclohexyl-5,7-dimethyl-imidazo[1,2-a]pyridin-3-ylamino)-hexyl]-methylidyne-ammonium] | 57%
2 | CC(=O)OCc1ccc(-c2nc3cc(C)ccn3c2NC2CCCCC2)o1 [Example 58, Acetic acid 5-(3-cyclohexylamino-7-methyl-imidazo[1,2-a]pyridin-2-yl)-furan-2-yl methyl ester] | 64%
3 | CC(=O)OCc1ccc(-c2nc3cc(C)cc(C)n3c2NC2CCCCC2)o1 [Example 52, Acetic acid 5-(3-cyclohexylamino-5,7-dimethyl-imidazo[1,2-a]pyridin-2-yl)-furan-2-yl methyl ester] | 64%
4 | [C-]#[N+]CCCCCCN(C(C)=O)c1c(-c2cccnc2)nc2cc(C)cc(C)n12 [Example 232, {6-[acetyl-(5,7-dimethyl-2-pyridin-3-yl-imidazo[1,2-a]pyridin-3-yl)-amino]-hexyl}-methylidyne-ammonium] | 59%
5 | CC(=O)OCc1ccc(-c2nc3ncccn3c2N(C(C)=O)C(C)(C)CC(C)(C)C)o1 [Example 249, acetic acid 5-{3-[acetyl-(1,1,3,3-tetramethyl-butyl)-amino]-imidazo[1,2-a]-pyrimidin-2-yl}-furan-2-yl methyl ester] | 54%
6 | [C-]#[N+]CCCCCCNc1c(-c2ccccc2Br)nc2cc(C)cc(C)n12 [Example 92, {6-[2-(2-Bromophenyl)-5,7-dimethyl-imidazo[1,2-a]pyridin-3-ylamino]-hexyl}-methylidyne-ammonium] | 60%
7 | [C-]#[N+]CCCCCCN(C(C)=O)c1c(-c2cccnc2)nc2cc(C)ccn12 [Example 241, {6-[acetyl-(7-methyl-2-pyridin-3-yl-imidazo[1,2-a]pyridin-3-yl)-amino]-hexyl}-methylidyne-ammonium] | 62%
8 | C#[N+]CCCCCCNc1c(-c2ccccc2C)nc2cc(C)cc(C)n12 [Example 106, [6-(5,7-Dimethyl-2-o-tolyl-imidazo[1,2-a]-pyridin-3-ylamino)-hexyl]-methylidyne-ammonium] | 60%

Same assay, conditions: read-out: HTS-NOS assay: % inhibition (10 μM)

Row | Compound | inhibition at 10 µM
9 | CC(=O)N(c1c(-c2ccc(Cl)s2)nc2ncccn12)C(C)(C)CC(C)(C)C [Example 256, N-[2-(5-chloro-thiophen-2-yl)-imidazo[1,2-a]pyrimidin-3-yl]-N-(1,1,3,3-tetramethyl-butyl)-acetamide] | 55%
10 | CC(=O)N(c1c(-c2cccc(Cl)c2Cl)nc2ccccn12)C(C)(C)C [Example 227, N-tert-butyl-N-[2-(2,3-dichloro-phenyl)-imidazo[1,2-a]pyridin-3-yl]-acetamide] | 54%
11 | Cc1cc(C)n2c(NC3CCCCC3)c(-c3ccco3)nc2c1 [Example 26, Cyclohexyl-(2-furan-2-yl-5,7-dimethyl-imidazo[1,2-a]pyridin-3-yl)-amine] | 62%
12 | CC(=O)N(c1c(-c2ccccn2)nc2cc(C)ccn12)C1CCCCC1 [Example 263, N-cyclohexyl-N-(7-methyl-2-pyridin-2-yl-imidazo[1,2-a]pyridin-3-yl)-acetamide] | 64%
13 | CCCCNc1c(-c2ccc(Cl)cc2Cl)nc2ccc(C)cn12 [Example 135, Butyl-[2-(2,4-dichloro-phenyl)-6-methyl-imidazo[1,2-a]pyridin-3-yl]-amine] | 50%
14 | Cc1ccn2c(NC(C)(C)C)c(-c3ccco3)nc2c1 [Example 68, Tert-butyl-(2-furan-2-yl-7-methyl-imidazo[1,2-a]pyridin-3-yl)-amine] | 57%
15 | Cc1cc(C)n2c(NC3CCCCC3)c(-c3ccc(C(=O)O)o3)nc2c1 [Example 87, 5-(3-Cyclohexylamino-5,7-dimethyl-imidazo[1,2-a]pyridin-2-yl)-furan-2-carboxylic acid] | 54%
16 | Cc1ccn2c(NC(C)(C)CC(C)(C)C)c(-c3ccccc3F)nc2c1 [Example 17, [2-(2-Fluoro-phenyl)-7-methyl-imidazo[1,2-a]pyridin-3-yl]-(1,1,3,3-tetramethyl-butyl)-amine] | 51%
17 | Cc1cc(C)n2c(NC3CCCCC3)c(-c3cccnc3)nc2c1 [Example 27, Cyclohexyl-(5,7-dimethyl-2-pyridin-3-yl-imidazo[1,2-a]pyridin-3-yl)-amine] | 62%
18 | CCCCN(C(C)=O)c1c(-c2ccccc2OC)nc2ccccn12 [Example 237, N-butyl-N-[2-(2-methoxy-phenyl)-imidazo[1,2-a]pyridin-3-yl]-acetamide] | 55%
19 | CC(=O)N(c1c(C2CCCCC2)nc2cc(C)cc(C)n12)C(C)(C)CC(C)(C)C [Example 219, N-(2-cyclohexyl-5,7-dimethyl-imidazo[1,2-a]pyridin-3-yl)-N-(1,1,3,3-tetramethyl-butyl)-acetamide] | 62%
20 | CC(=O)N(c1c(-c2cccnc2)nc2cc(C)cc(C)n12)C1CCCCC1 [Example 192, N-cyclohexyl-N-(5,7-dimethyl-2-pyridin-3-yl-imidazo[1,2-a]pyridin-3-yl)-acetamide] | 72%
21 | CCc1ccn2c(NCc3ccccc3Cl)c(-c3ccco3)nc2c1 [Example 316, (2-Chloro-benzyl)-(7-ethyl-2-furan-2-yl-imidazo[1,2-a]pyridin-3-yl)-amine] | 52%
22 | CC(=O)N(c1c(-c2ccco2)nc2c(Br)cc(Br)cn12)C(C)(C)CC(C)(C)C [Example 165, N-(6,8-dibromo-2-furan-2-yl-imidazo[1,2-a]pyridin-3-yl)-N-(1,1,3,3-tetramethylbutyl)-acetamide] | 67%
23 | CC(=O)N(c1c(-c2cc3ccccc3c3ccccc23)nc2cc(C)ccn12)C(C)(C)C [Example 208, N-tert-butyl-N-(7-methyl-2-phenanthren-9-yl-imidazo[1,2-a]pyridin-3-yl)-acetamide] | 63%
24 | CC(=O)N(c1c(-c2ccc(C)o2)nc2ccccn12)C(C)(C)CC(C)(C)C [Example 200, N-[2-(5-methyl-furan-2-yl)-imidazo[1,2-a]pyridin-3-yl]-N-(1,1,3,3-tetramethylbutyl)-acetamide] | 58%
25 | CC(=O)N(c1c(C)nc2cc(C)cc(C)n12)C(C)(C)CC(C)(C)C [Example 150, N-(1,1,3,3-tetramethyl-butyl)-N-(2,5,7-trimethyl-imidazo[1,2-a]pyridin-3-yl)-acetamide] | 60%
26 | CC(=O)N(c1c(C)cccc1C)c1c(-c2ccccc2F)nc2cc(C)ccn12 [Example 209, N-(2,6-dimethyl-phenyl)-N-[2-(2-fluoro-phenyl)-7-methyl-imidazo[1,2-a]pyridin-3-yl]-acetamide] | 62%
27 | Cc1ccn2c(NC(C)(C)CC(C)(C)C)c(-c3ccc(Cl)cc3Cl)nc2c1 [Example 85, [2-(2,4-Dichlorophenyl)-7-methyl-imidazo[1,2-a]pyridin-3-yl]-(1,1,3,3-tetramethyl-butyl)-amine] | 61%
28 | COc1ccccc1-c1nc2cc(C)cc(C)n2c1Nc1c(C)cccc1C [Example 79, (2,6-Dimethyl-phenyl)-[2-(2-methoxy-phenyl)-5,7-dimethyl-imidazo[1,2-a]pyridin-3-yl]-amine] | 66%
29 | Cc1ccn2c(NC(C)(C)C)c(-c3ccc(C4OCCO4)o3)nc2c1 [Example 65, Tert-butyl-[2-(5-[1,3]dioxolan-2-yl-furan-2-yl)-7-methyl-imidazo[1,2-a]pyridin-3-yl]-amine] | 62%
30 | CC(=O)N(c1c(-c2ccc(C(=O)O)o2)nc2cc(C)ccn12)C(C)(C)CC(C)(C)C [Example 186, 5-{3-[acetyl-(1,1,3,3-tetramethyl-butyl)-amino]-7-methyl-imidazo[1,2-a]pyridin-2-yl}-furan-2-carboxylic acid] | 65%
